# Measured values: patent US7943606B2, “Compositions and methods to control abnormal cell growth” (CanCure Laboratories, LLC, priority 2005, dated 2011)
# Assays:
# 966 SK cells = test: Viability of 966 SK skin fibroblasts (MTT assay); type: cell-based, human; conditions: 50 and 100 μM, 72 hours
# Procedure: (§1) To quantify cell death, around the time when significant and characteristic morphological changes took place, cells were pulse-labeled for 10 minutes with [^3H]thymidine to measure DNA activity as described elsewhere [Tomono, M. and Kiss, Z. (1995), “Ethanol enhances the stimulatory effects of insulin and insulin-like growth factor-I on DNA synthesis in NIH 3T3 fibroblasts,” Biochem. Biophys. Res. Commun. 208, 63-67]. Also, cells were collected as suspensions using trypsin, an established method in cell biology, followed by re-plating of cells in fresh tissue culture medium. If no viable cells were obtained after one week in culture, it meant that the cells at the time of re-plating were dead. Survival values obtained with untreated cells were considered 100%. For the determination of relative number of viable cells after treatments, in most cases the MTT assay was used. This calorimetric assay is based on the ability of living cells, but not dead cells, to reduce 3-(4,5-dimethyl thiazol-2-yl)-2,5-diphenyltetrazolium bromide [Carmichael, J, De Graff, W. G., Gazdar, A. F., Minna, J. D. and Mitchell, J. B. (1987), “Evaluation of tetrazolium-based semi-automated calorimetric assay: Assessment of chemosensitivity testing,” Cancer Res. 47, 936-942]. For this assay, cells were plated in 96-well plates, and the MTT assay was performed both in untreated and treated cell cultures. […]
# HepG2 cells = test: Viability of HepG2 hepatoblastoma cells (MTT assay); type: cell-based, human; conditions: 50 and 100 μM, 10 days
# Procedure: as §1
# CaCO-2 cells = test: Viability of CaCO-2 colon adenocarcinoma cells (MTT assay); type: cell-based; conditions: Homo sapiens, Caco-2, 240 h, 10 days, read-out: reduction in the number of viable cells, CaCO-2
# Procedure: as §1
# 3A-SubE cells = test: Viability of 3A-SubE post crisis placenta cells (MTT assay); type: cell-based; conditions: 50 μM 48 hours, then 96 hours without CCDTHT
structure (smiles),measurement,setting,value
"CC[N+](C)(CC)CCOCc1ccc2sc3ccccc3c(=O)c2c1.[I-] [CCDTHT, N,N-diethyl-N-methyl-2-[(9-oxo-9H-thioxanthen-2-yl)methoxy]-ethanaminium iodide]","sensitivity compared with HaCaT cells, 966 SK fibroblasts",966 SK cells,significantly less sensitive
same,"sensitivity to the inhibitory actions, HepG2",HepG2 cells,moderately sensitive
same,cytotoxicity at 100 µM,CaCO-2 cells,≤ 50%
same,"reversibility: proliferation in fresh medium after treatment, 3A-SubE",3A-SubE cells,not sufficient to suppress proliferation
